According to patent publication US8178574B2, “Tosylate salt of trans-N-isobutyl-3-fluoro-3-[3-fluoro-4-(pyrrolidin-1-yl-methyl)-phenyl] cyclobut anecarboxamide” (Pfizer Inc., priority 2007, dated 2012):
Counter-ions that a name gives are not always drawn.

What was measured:
[1] = Aqueous solubility of the crystalline compound (RP-HPLC after temperature cycling); type: physicochemical; conditions: for solubility thermodynamic at 25 h: aqueous buffer
Description: The following information was determined in regard of aqueous solubility. […] These values represent the solubility of the crystalline compound determined via RP-HPLC analysis after subjecting the drug media mixture to a temperature cycling program (40° C. for 8 hours, 15° C. for 5 hours, and 25° C. for 12 hours).

[2] = Hygroscopicity by dynamic vapor sorption (VTI, kinetic experiment); type: physicochemical
Description: Hygroscopicity was assessed using a dynamic vapor sorption technique in which an accurately weighed sample is subjected to progressively changing water vapor pressure while simultaneously recording the weight change. The experiment is conducted isothermally at 25° C.
During the initial drying cycle (25° C., 1-3% RH), approximately 0.8% weight loss was observed, which is consistent with an anhydrous form. The sample gained 0.5% of its original weight when exposed to relative humidities from 0% to 90% at 25° C. (CQG≦2% wt. gain at 90% RH). […] FIG. 5 (VTI Moisture Sorption Data) reports results achieved in a step isotherm at a heating rate of 1° C./minute.

With CC(C)CNC(=O)[C@H]1C[C@@](F)(c2ccc(CN3CCCC3)c(F)c2)C1 [tosylate salt of the invention] as the molecule, how does the solubility ([1]; 0.1M phosphate buffered saline with 0.5 weight percent sodium taurocholate/phosphatidyl choline salts, final pH 7.4) read?
Its solubility is 7.0 mgA/mL.

What about the solubility thermodynamic at 25 h ([1]; 0.1M phosphate buffered saline, final pH 6.3, temperature cycling 40/15/25° C.) of the same molecule?
The solubility thermodynamic at 25 h was 5000 µg/mL.

What about the solubility thermodynamic at 25 h ([1]; unbuffered water, final pH 4.7) of the same molecule?
The solubility thermodynamic at 25 h was 8400 µg/mL.

What about the “weight loss during initial drying cycle” value ([2]; 25° C., 1-3% RH) of the same molecule?
The value was “approximately 0.8%”.

And the “hygroscopicity (in words)” value ([2]; kinetic experiment (VTI), 25° C.)?
The value was “very slightly hygroscopic”.

What about the “weight gain (of original weight)” value ([2]; relative humidities from 0% to 90% at 25° C.) of the same molecule?
The value was 0.5%.
